# Source: US9657059B2, “Immune system modulators” (Canimguide Therapeutics AB, priority 2013, dated 2017)
# No end group written: not given here.
# What was measured:
# P3028 = P3028 (Homo sapiens, UniProt P02768); experiment: Chip ELISA: binding of His-tag labeled P3028 to cyclic peptides, positional scan
# Description: In order to identify cyclic peptides that bind to P3028, all possible variants of di- and tripeptides were synthesized on chips and the binding of the His-tag labeled P 3028 was analyzed using the ELISA-technique. Based on the identified binding motifs, looped 6-meres were produced and tested. […] Positional scans were performed in each position of the lead cyclic peptide was replaced with each of the other 19 L-amino acids. Binding of each of the substituted peptides was tested, and peptide sequences with even better binding capacity than that of the lead peptide were identified.
# [1] = system: NK-cell cytotoxicity against K562 target cells; format: cell-based, human
# Description: The ability of specific albumin fragments to impact NK-cell cytotoxicity was also evaluated. In these experiments, synthetic peptides corresponding to albumin fragments (P3028, P3026, and P3027) (SEQ ID NOs: 185, 183, and 184, respectively) were prepared and the amount of lysis of K562 target cells was assessed (see Example 4).
# K562 target cells = experiment: NK-cell cytotoxicity (NKTEST); format: cell-based, human; settings: 10 ug/ml, effector:target 40:1, four donors
# Description: The NK-cell cytotoxic activity of blood mononuclear cells from four healthy donors was tested. Mononuclear cells were separated by standard Ficoll-paque Plus (Pharmacia AB, Sweden) density gradient centrifugation from heparinized blood obtained from healthy donors. NK cell cytotoxic activity of the mononuclear cells was then tested using a commercial kit (NKTEST, Orpegen Pharma GmblI, Heidelberg, Germany) following the manufacturers protocol. Briefly, the kit contains cryopreserved, NK-sensitive target cells (K562) labeled with a lipophilic green fluorescent membrane dye, which enables discrimination of effector and target cells. After incubation with effector cells, killed target cells are identified by a DNA-stain, which penetrates and specifically stain the nuclei of dead target cells. This way the percentage of killed targets can be determined by flow cytometry. The mononuclear cells were preincubated for 30 min at 37° C. with the indicated peptides (peptides have been described previously) at 10 ug/ml. Target cells were then added, giving an effector:target ratio of 40:1, and the cell mixture incubated at 37° C. for 3-4 hours. Samples were analysed on a FACSCalibur (BD Biosciences, San Jose, Calif.).
# [2] = system: PBMCs from a healthy control; experiment: PBMC activation (CD69, CD71) by flow cytometry in RPMI plus 10% human AB serum; format: cell-based; settings: 40 μg/mL; for PBMC activation, cells with enhanced CD69: 24 hours
# Description: FIG. 41 is a series of graphs illustrating effects of modified peptides on activation of PBMCs from healthy control person. PBMCs were incubated with the peptides (40 μg/mL) for 24 hours in RPMI plus 10% human AB serum. Activation is determined as percentage of cells with enhanced marker CD69 using flow cytometry. FIG. 41A illustrates results of two experiments (410 and 412) performed for each peptide. FIG. 41B illustrates results of two experiments (414 and 416) performed for each peptide.
# FIG. 42 is a series of graphs illustrating effects of the full length peptide P28R and the 6 amino acid central sequence (32230, FFVKLS, SEQ ID NO: 62) in culture medium containing normal human AB serum. Activation is determined as percentage of cells with enhanced marker CD69 or CD71 using flow cytometry. PBMCs were incubated with the peptides (40 μg/mL) for 24 hours in RPMI plus 10% human AB serum. FIG. 42A illustrates the results of two experiments (420 and 422) performed for each peptide. FIG. 42B illustrates the results of two experiments (424 and 426) performed for each peptide.
# FIG. 46 is a series of graphs illustrating Effect of modified peptides on activation of PBMCs from healthy control person. […] PBMCs were incubated with the peptides (40 μg/mL) for 48 hours in RPMI plus 10% human AB serum.
# Based on the positional scan data, it is contemplated that substitutions of SEQ ID NO: 2 can be useful in accordance with some embodiments herein for binding P3028, de-blocking the LFA-1 receptor from P3028-mediated inhibition (e.g. displacing bound P3028 peptide and P3028-structure containing molecules from the LFA-1 receptor), and/or stimulating immune cells. The activity of peptide P28R (SEQ ID NO: 2) and modifications of P28R was studied in a human ex vivo model using PBMCs from a healthy control human in short term cultures, and with PBMC activation measured as a percentage of cells with enhanced CD69 (see Example 37).
# As P28R (SEQ ID NO: 2) can bind to P3028 and stimulate PBMC's from healthy controls in short term cultures, for example when in a culture medium comprising RPMI plus 10% normal human AB serum (see Example 37), it is contemplated that truncations of P28R in accordance with some embodiments herein can be useful for binding to inhibitors of any one or more of the peptides listed in Tables 1-4. Truncations of P28R were assessed for their ability to activate PBMC's (see Example 38). PBMCs were incubated with the peptides (40 μg/mL) for 24 hours in RPMI plus 10% human AB serum. PBMC activation was measured as percent cells with enhanced expression of either CD69 (FIG. 42A) or CD71 (FIG. 42B) using flow cytometry. […] However, PBMCs were also incubated with the peptides in cancer sera from dogs, or in caner sera from human cancer patients (see FIG. 43). […] As such, it is contemplated that in accordance with some embodiments herein, P28R, P28 core, or combinations of these peptides are useful for stimulating immune cells in the serum of a subject that has cancer.
# Effects of modified peptides on the activation of PBMCs from a healthy control person were assessed (see Example 41). PBMCs were incubated with the peptides (40 μg/mL) for 48 hours in RPMI plus 10% human AB serum, and PBMC activation was determined by flow cytometry based on the percentage of cells with enhanced marker CD69 or CD71. Peptides P28R (SEQ ID NO: 2), P28 core (peptide 32230) (SEQ ID NO: 62), 32251 ([…]) (SEQ ID NO: 592), 32814 ([…]) (SEQ ID NO: 586), 32815 ([…]) (SEQ ID NO: 595), 32665 ([…]) (SEQ ID NO: 593), and 32819 ([…](C(PEG24))) (SEQ ID NO: 594) were tested. […] Accordingly, it is contemplated herein that
# PBMCs [3] = experiment: PBMC activation (CD69/CD71, flow cytometry) in RPMI plus 10% human AB serum; format: cell-based; settings: healthy control person, 40 μg/mL; for PBMC activation, cells with enhanced CD69: 24 hours
# Description: The activity of peptide P28R (SEQ ID NO: 2) and modifications of P28R was studied in a human ex vivo model using PBMCs in short term cultures, 24 or 48 hours. Effects of P28R and modifications of P28R on PBMC's from a healthy control person were studied. Activation was measured as percentage of cells with enhanced marker CD69 using flow cytometry. PBMCs were incubated with the peptides (40 μg/mL) for 24 hours in RPMI plus 10% human AB serum.
# As observed in Example 37, P28R (SEQ ID NO: 2) can stimulate PBMC's from healthy controls in short term cultures when RPMI plus 10% normal human AB serum is used as culture medium. Truncations of P28R were also assessed for their ability to activate PBMC's. PBMCs were incubated with the peptides (40 μg/mL) for 24 hours in RPMI plus 10% human AB serum. PBMC activation was measured as percent cells with enhanced expression of either CD69 (FIG. 42A) or CD71 (FIG. 42B) using flow cytometry. Two experiments were performed for each peptide.
# Effects of modified peptides on activation of PBMCs from healthy control person were assessed. Activation was determined as percentage of cells with enhanced marker CD69 or CD71 using flow cytometry. PBMCs were incubated with the peptides (40 μg/mL) for 48 hours in RPMI plus 10% human AB serum.
# PBMCs [4] = experiment: IL-2 induced proliferation of PBMCs, ex vivo model (3H-thymidine); format: cell-based, human; settings: PBMCs from healthy control samples, 7 days
# Description: 100 μl of RPMI1640 supplemented with 200 IU/ml penicillin, […] streptomycin, 4 mM L-glutamine (all from Sigma Chemical Co. MO, US) and 20% heat-inactivated human serum (autologous or from cancer patients) were added to uncoated, HSA or HSA/IgG coated tissue culture microtiter plates. PBMC, isolated from healthy individuals or patients with metastatic renal cell carcinoma, were diluted in RPMI/2% HSA at a concentration of 5×10^5/ml and 100 μl were added to the microtiter wells. Interleukin-2 (IL-2, Proleukin, Chiron, NL), at a final concentration of 120 IU/well, was added to some wells. Cells were cultured for 7 days in a humidified, 5% CO2-atmosphere at 37° C. Proliferation was assayed by incorporation of 1.6 μCi/well of [^3H]-thymidine (Amersham Int., UK) during the last 18 hrs. Mean values of dpm (disintegrations per minute) of triplicates were used for the calculations.
# Cultures for IL-2 induced proliferation was set up with PBMC from healthy donors and autologous serum as described above with the exception that PBMC were first pre-incubated for 30 min at room temperature with the indicated albumin peptides at a concentration of 10 μg/ml. […]
# The effect of different peptides on IL-2 induced proliferation was analyzed in the human ex vivo model, using PBMCs from healthy control samples. […] Proliferation was measured as incorporation of ^3H-thymidine during the final 18 hours. […]
sequence,measurement,setting,value
CLRLIVMCG [SEQ ID NO: 266],"binding to P3028, positional scan",P3028,highest affinity
CLRLNVFCG [SEQ ID NO: 265],"binding to P3028, positional scan",P3028,highest affinity
ELFEQLGEYKFQNALLVR [P3027],effect on NK-cell cytotoxicity,[1],Inhibition was not seen
same,effect on NK-cell cytotoxicity (percent specific lysis),K562 target cells,Inhibition was not seen
KKLDTFFVYLSLFTER [compound 31135],"PBMC activation, cells with enhanced CD69",[2],directly stimulate
same,"PBMC activation, cells with enhanced CD69",PBMCs [3],also stimulated immune cells
KKLDTVMVKLQLMTER [compound 30680],"PBMC activation, cells with enhanced CD69",[2],did not stimulate
same,"PBMC activation, cells with enhanced CD69",PBMCs [3],induced activation of PBMCs
KVPQVSTPTLVEVSR (listed as Homo sapiens) [P3029],effect on IL-2 induced proliferation,PBMCs [4],none of the other peptides identified by their binding to the artificial cell surface had any inhibitory activity
RKLDTFFVKLSLFTERRR [compound 32814],"PBMC activation, cells with enhanced CD69 and CD71",[2]; 48 hours,stimulatory effect in short term cultures similar to that of P28R
same,"PBMC activation, enhanced CD69 or CD71",PBMCs [3]; 48 hours,stimulatory effect in short term cultures similar to that of P28R
